Key:
[1] = test system: M6P/IGF-II receptor mRNA; test: M6P/IGF-II receptor mRNA in human neonatal fibroblasts by RT-PCR; format: cell-based; settings: 100 and 200 μM
Method: (§1) Human neonatal fibroblasts were seeded in 100 mm dishes at 1×10^6 cells/dish. […] In addition, cells were treated with two concentrations of Mannose 1-Phosphate (M1P) (100 and 200 μM) for 24 and 48 h. […] Each treatment was run in duplicates and repetitive analyses were performed.
(§2) The procedure used to transcribe the total RNA was described in detail previously (28). Briefly, the reaction was carried out in a total volume of 25 μl containing 1× reverse transcriptase buffer (50 mM Tris-HCl, pH 8.3, 75 mM KCl, 3 mM MgCl2), 10 mM DTT (Dithiothreitol), 2.5 mM each of dNTPs (Deoxynucleotides), 100 μg/ml of acetylated BSA, 4 units of rRNasin (ribonuclease inhibitor), 200 units of SuperScript™ RNase H^−Reverse Transcriptase, 0.1 μg of oligo (dT)12-18 and 1 μg of total RNA. Incubation was carried out for 1 h at 42° C. and was terminated by the addition of an equal volume of cold water.
(§3) A portion of the first strand cDNA reaction was used in PCR, which was carried out in 25 μl containing 16 mM Tris-HCl, pH 8.3, 50 mM KCl, 1.5 mM MgCl2, 0.01% gelatin, 200 μM of each dNTPs, 1 μM each sense and antisense oligonucleotides and 2.5 units of AmpliTaq DNA polymerase. Amplification was carried out for 35 cycles. Each cycle consisted of: denaturation 1 min at 95° C.; annealing at 55° C. (optimal for the pair of oligonucleotides used) for 2 min; and elongation at 72° C., 3 min. For the final cycle elongation was 7 min. Reaction products were separated by 2% agarose gel electrophoresis and were visualized by ethidium bromide staining. Sizes were determined using Q X 174 DNA/Hae III markers. Restriction digests were performed in order to confirm PCR product specificity. Densitometry was used for quantitative analysis of the ethidium bromide stained gels.

[2] = test system: TGF-β1 mRNA; test: TGF-β1 mRNA in human neonatal fibroblasts by RT-PCR; format: cell-based; settings: 100 and 200 μM
Method: as §1, §2, §3

[3] = test system: TGF-β1 activation; test: BAEC treated with retinoic acid, TGF-β1 in conditioned media by ELISA; format: cell-based, bovine
Method: The procedures for preparation of conditioned media were described previously (22). Briefly, for the retinoid experiment, BAEC cells were grown to confluency in 35 mm dishes. The cultures were rinsed with PBS (Phosphate Buffered Saline), and incubated in 1 ml of serum-free DMEM containing 0.1% of BSA and retinoic acid (10 μM) or vehicle (0.5% ethanol). The incubation was carried out for 24 h. The medium was aspirated, the cells were washed with PBS and then incubated in 1 ml of DMEM/0.1% BSA for an additional 12 h to produce conditioned medium. Conditioned media were centrifuged and used in the ELISA assay for TGF-β1 evaluation.
Each measurement was performed in duplicates. […]

[4] = test system: TGF-β1 activation; test: Macrophage activation assay (IC-21 macrophages, LPS, fetal fibroblast conditioned media, ELISA); format: cell-based, mouse; settings: 1 μM
Method: Cultured macrophages were lifted from the dish with 3 ml of PBS. The PBS was balanced with 15 ml of RPMI-1640 containing 10% FBS. The cells were counted and then seeded in 100 mm plates at 1×10^6 cells/dish. When the cultured macrophages reached approximately 70% confluency (2-3 days) they were washed with PBS and RPMI-1640 medium containing 5% FBS and 10 ng/ml LPS was applied (FIG. 1). After 24 h of activation with LPS the cells were washed gently with PBS. At this point conditioned medium from confluent fetal dermal fibroblasts was collected and 5 ml was distributed into each dish containing macrophages. The cells were incubated for an additional 24 h, the media were collected, spun down at 600×g for 10 min and stored at 4° C. before TGF-β1 evaluation by ELISA. Each condition was done in duplicate. The cells, washed with PBS, were harvested for total RNA extraction.
Fetal dermal fibroblasts were seeded in 100 mm dishes at 1×10^6 cell/dish. The cells were grown to confluency (2-3 days). The cultures were washed with PBS and fresh medium, either DMEM supplemented with 10% FBS or AIM-V medium (a serum free medium) for serum-free conditions, was applied for 24 h (FIG. 1). The medium was collected and combined in order to obtain a homogenous pool of latent TGF-β1. The collection of the medium was done just prior to application in the macrophage assay.
(§4) Each measurement was performed in duplicates.

[5] = test system: tissue Transglutaminase II mRNA; test: mRNA for TGase II in macrophages by RT-PCR densitometry; format: cell-based, mouse; settings: 1 μM hydrocortisone, densitometry of RT-PCR products, FIG. 3
Method: (§5) The cells were washed with PBS, followed by addition of the extraction buffer provided with the kit (RNeasy RNA extraction kit). The lysed cells were scraped from the dish and collected in microtubes. Samples were either frozen at −70° C. before analysis or directly assessed following manufacturer protocol. Absorbance at 260 nm and 280 nm was measured and the integrity of RNA was evaluated by denaturing formaldehyde agarose gels stained with ethidium bromide.
The procedure used to transcribe the total RNA was described in detail previously (28). […]
A portion of the first strand cDNA reaction was used in PCR, which was carried out in 25 μl containing 16 mM Tris-HCl, pH 8.3, 50 mM KCl, 1.5 mM MgCl2, 0.01% gelatin, 200 μM of each dNTPs, 1 μM each sense and antisense oligonucleotides and 2.5 units of AmpliTaq DNA polymerase. […] Sizes were determined using Q X 174 DNA/Hae III markers. […] Densitometry was used for quantitative analysis of the ethidium bromide stained gels.
In an attempt to identify the mechanism of this inhibition, the level of mRNA was evaluated for TGase II in macrophages treated with 1 μM hydrocortisone.

[6] = test system: TGF-β1 activation; test: TGF-β1 activation by prostate adenocarcinoma cells (ELISA); format: cell-based, human; settings: prostate cancer cells
Method: as §4
(§6) It has been shown that cancer cells, such as human breast cancer, some melanoma cell lines and prostate adenocarcinoma cell lines, constitutively release biologically active TGF-β1 into the culture medium (24, 25, 29). Since the homotypic cell culture system would be of advantage due to its simplicity, an attempt was made to implement cancer cells as a method for TGF-β1 activation.

[7] = test system: TGF-β1 activation; test: TGF-β1 activation by HMB-2 melanoma cells (ELISA); format: cell-based, human
Method: as §4, §6

[8] = test system: TGF-β1 activation; test: TGF-β1 activation by Bowes melanoma cells (ELISA); format: cell-based, human
Method: as §4, §6

[9] = test system: TGF-β1 mRNA; test: mRNA for TGF-β1 in macrophages by Northern blot; format: cell-based, mouse; settings: LPS alone or LPS with M6P or DCA, FIG. 2
Method: as §5
Northern blot analysis was carried out as described previously (27). Briefly, total RNA samples (5 μg) were diluted in formaldehyde-MOPS buffer and subjected to electrophoresis in a denaturing 1.2% Sea Kem GTG agarose gel along with the RNA size markers. RNA was transferred to a nitrocellulose membrane by capillary transfer. The blots were prehybridized for 3 h at 42° C. in a solution containing 10% dextran sulfate, 2×Denhardt's solution, 50% formamide, 5×SSPE (0.75 M Sodium chloride, 0.05 M sodium phosphate, 0.005 M ethylenediaminetetraacetic acid)/0.1% SDS, and 250 μg/ml of sheared salmon testis DNA. Hybridization solution was essentially the same except that ^32P dCTP-labeled DNA probe and 150 μg/ml of salmon testis DNA were included. The hybridization was carried out for 16 h at 42° C. […]

[10] = BAEC + RA (10 μM) + test agent 100 μM
[11] = BAEC + RA (10 μM), conditioned medium

Structure (SMILES): O=P(O)(O)O[C@H]1O[C@H](CO)[C@@H](O)[C@H](O)[C@@H]1O [M1P, alpha-D(+)mannose 1-phosphate]
- effect on M6P/IGF-II receptor mRNA level, in words [1]: no effects
- effect on TGF-β1 mRNA level, in words [2]: no effects
- inhibitory effect on TGF-β1 activation, in words ([3]; 100 μM, BAEC treated with RA): no significant inhibitory effects
- % Active [3, 10]: 7.6%
- Active TGF-β1 [3, 10]: 280 pg/mL
- Total TGF-β1 [3, 10]: 3686 pg/mL

Structure (SMILES): C[C@]12CCC(=O)C=C1CC[C@@H]1[C@@H]2[C@@H](O)C[C@@]2(C)[C@H]1CC[C@]2(O)C(=O)CO [Hydrocortisone, hydrocortisone]
- active TGF-β1, % Control (STD) [4]: 64.0 (0.4) %
- active TGF-β1, % Control (STD) ([4]; listed as hydrocortisone): 64.0%
- level of mRNA for TGase II, reduced to [5]: 37.5%

Structure (SMILES): CC1=C(/C=C/C(C)=C/C=C/C(C)=C/C(=O)O)C(C)(C)CCC1 [RA, all-trans retinoic acid]
- % Active ([3]; BAEC + RA (10 μM)): 10.3%
- Active TGF-β1 [3, 11]: 276 pg/mL
- Total TGF-β1 [3, 11]: 2667 pg/mL

Structure (SMILES): CN(C)c1cccc2c(S(=O)(=O)NCCCCCN)cccc12 [DCA, monodansylcadaverine]
- effect on TGF-β1 activation, in words [6]: no effect
- % ACTIVE TGF-β1 (STD) ([7]; HMB-2, M6P 100 μM, DCA 100 μM, antibody 1:1500 dil): 110.7%
- effect on TGF-β1 activation, in words ([7]; melanoma cells (HMB-2)): no effect
- % ACTIVE TGF-β1 (STD) ([8]; BOWES, M6P 100 μM, DCA 100 μM, antibody 1:1500 dil): 145%
- effect on TGF-β1 activation, in words ([8]; melanoma cells (Bowes)): no effect
- levels of mRNA for TGF-β1, in words [9]: remained the same

Source: patent publication US6750028B1, “Anti-fibrotic agent assay” (Ethicon, Inc, priority 1996, dated 2004)
